Measured values: US8541670B2, “Compositions and methods for inhibiting tumor cell growth” (priority 2007, dated 2013)
Where no end group is shown, it is not given here. red fluorescent dye = not defined here

How the values were obtained:
[1] = target: T1, p70S6K (Homo sapiens, UniProt P23443); assay: In vitro kinase assay p70S6K; format: biochemical; details: ten times higher concentration than 0.1 μM
T1 construct: endogenous in cells
Protocol: As a specific substrate, the phosphorylation level of GSK-3[…] at Ser-9 was also evaluated. […] The decrease was specific to the AKT phosphorylation site on GSK-3[…] at Ser-9, since a change in the phosphorylation level of GSK-3[…] at Tyr-216 or GSK-3[…] at Tyr-279 was not observed. Moreover, the in vivo reduction of the phosphorylation of AKT substrates was more obvious at the injection site, since a significant change in the phosphorylation of AKT substrates in the frontal cortex or cerebellum between the two hemispheres was not observed. […] To test the specificity/selectivity of ZaTa as the inhibitor of AKT1 versus the other major kinases, a series of in vitro kinase assays was performed at IC50 for AKT1 and at ten times higher concentrations. A panel of the following 32 kinases was first tested in vitro using the active form of each kinase and a specific substrate: AKT2, AKT3, PKA, PKC[…], PKC, PI3K[…], PI3K[…], PI3K, SGK, PAK2, PAK3, SAPK2/p38, Abl, CaMKII, CDK1/cyclinB, CDK5/p35, CK1, CK2, CSK, GSK3[…], GSK3[…], JNK1[…]1, MAPK1, p70S6K, PDGFR[…], PDGFR[…], PDK1, PKG1[…], TrkB, JAK2, JAK3, and Syk. […] However, at ten times higher concentration, ZaTa inhibited AKT2 (63%), PI3K[…] (72%), p70S6K (64%), SGK (73%), PAK3 (83%), JAK3 (79%), TrkB (84%), and Abl (42%). […]

[2] = tested on: AKT; assay: Western blot of AKT substrate phosphorylation in N2a cells; format: cell-based; details: different doses
Protocol: AKT affects a network that positively regulates G1/S cell cycle progression through several mechanisms that involve the expression and subcellular localization of the CDK inhibitor p27^Kip1 (Blain and Massague (2002) Nat. Med. 8:1076-1078; Liang, et al. (2002) supra; Shin, et al. (2002) supra; Viglietto, et al. (2002) supra). Based on these studies, the effect of ZaTa peptide on cell proliferation was assessed. […] Capturing live images of cultured N2a cells in the presence of different concentrations of the ZaTa peptide confirmed an obvious reduction in the number of dividing cells.
N2a cells were cultured in Dulbecco's Modified Eagle's Medium (DMEM) and OPTI-MEM® media (50% of each; GIBCO-BRL, Gaithersberg, Md.) supplemented with 5% fetal bovine serum (FBS; SIGMA, St. Louis, Mo.), penicillin-streptomycin and L-Glutamine (GIBCO-BRL). […] Protein concentration was measured using a commercially available protein assay (BIO-RAD, […].) protein assay and spectrometry at 595 Å. […] The membrane was probed with primary and secondary antibodies and signals were detected by chemiluminescence followed by autoradiography.

[3] = target: AKT-PKAc complex (Mus musculus, UniProt P31750); assay: In vivo co-immunoprecipitation of AKT-PKAc complex from striatum; set-up: ZaTa could disrupt the physical complex between AKT and PKAc in vivo; from tissue; host or cells: striatum of adult C57BL/6 mouse; species or system C57BL/6 mouse; details: versus vehicle-treated hemisphere
Protocol: The phenotypic consequence of disrupting the AKT-PKAc complex was also determined. ZaTa peptide was injected into the striatum of one hemisphere of the brain and DMSO, as vehicle, was injected into the other brain hemisphere of an adult C57BL/6 mouse under anesthesia. The brain was removed and dissected. Equal protein amounts from each hemisphere were subjected to immunoprecipitation by an anti-AKT antibody. […] To compare PKAc protein levels in the ZaTa- and vehicle-treated brain hemisphere lysates, western blot analysis was conducted.

[4] = target: Abl (Homo sapiens, UniProt P00519); assay: Cell-based kinase assay, phosphorylation of intracellular substrate (Tyr-207 CRKL)
Protocol: As a specific substrate, the phosphorylation level of GSK-3[…] at Ser-9 was also evaluated. […] The decrease was specific to the AKT phosphorylation site on GSK-3[…] at Ser-9, since a change in the phosphorylation level of GSK-3[…] at Tyr-216 or GSK-3[…] at Tyr-279 was not observed. Moreover, the in vivo reduction of the phosphorylation of AKT substrates was more obvious at the injection site, since a significant change in the phosphorylation of AKT substrates in the frontal cortex or cerebellum between the two hemispheres was not observed. […] To test the specificity/selectivity of ZaTa as the inhibitor of AKT1 versus the other major kinases, a series of in vitro kinase assays was performed at IC50 for AKT1 and at ten times higher concentrations. […]
Phosphorylation sites for kinases analyzed herein included Ser-235/236 S6 (a substrate for p70S6K), Tyr-207 CRKL (a substrate for Abl; Zipfel, et al. (2004) supra), Ser-241 PDK1 (a substrate for PI3K), Tyr-1022/1023 JAK1 (a substrate for JAK3; Wang, et al. (2003) supra), Ser-421 Huntingtin (a substrate for SGK; Rangone, et al. (2004) supra), Tyr-783 PLC (a substrate for TrkB; Middlemas, et al. (1994) supra), and Ser-338 cRaf (a substrate for PAK3; King, et al. (1998) supra).

T1 sequence (P23443 whole entry): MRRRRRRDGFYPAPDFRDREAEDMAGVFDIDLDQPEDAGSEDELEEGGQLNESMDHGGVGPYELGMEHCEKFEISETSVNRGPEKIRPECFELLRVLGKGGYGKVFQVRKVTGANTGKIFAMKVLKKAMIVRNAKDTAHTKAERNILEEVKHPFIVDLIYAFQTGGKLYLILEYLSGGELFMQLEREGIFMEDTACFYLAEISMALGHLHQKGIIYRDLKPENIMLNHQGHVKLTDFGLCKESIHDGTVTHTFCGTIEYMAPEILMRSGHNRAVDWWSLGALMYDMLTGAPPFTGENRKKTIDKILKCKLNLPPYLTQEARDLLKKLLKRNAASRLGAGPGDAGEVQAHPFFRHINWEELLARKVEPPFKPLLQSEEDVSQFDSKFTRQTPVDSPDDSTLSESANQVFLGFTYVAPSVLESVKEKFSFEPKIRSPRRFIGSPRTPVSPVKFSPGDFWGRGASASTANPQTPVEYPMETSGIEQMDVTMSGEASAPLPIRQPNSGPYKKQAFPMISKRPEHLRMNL
Chain of Abl (P00519 whole entry, species assumed): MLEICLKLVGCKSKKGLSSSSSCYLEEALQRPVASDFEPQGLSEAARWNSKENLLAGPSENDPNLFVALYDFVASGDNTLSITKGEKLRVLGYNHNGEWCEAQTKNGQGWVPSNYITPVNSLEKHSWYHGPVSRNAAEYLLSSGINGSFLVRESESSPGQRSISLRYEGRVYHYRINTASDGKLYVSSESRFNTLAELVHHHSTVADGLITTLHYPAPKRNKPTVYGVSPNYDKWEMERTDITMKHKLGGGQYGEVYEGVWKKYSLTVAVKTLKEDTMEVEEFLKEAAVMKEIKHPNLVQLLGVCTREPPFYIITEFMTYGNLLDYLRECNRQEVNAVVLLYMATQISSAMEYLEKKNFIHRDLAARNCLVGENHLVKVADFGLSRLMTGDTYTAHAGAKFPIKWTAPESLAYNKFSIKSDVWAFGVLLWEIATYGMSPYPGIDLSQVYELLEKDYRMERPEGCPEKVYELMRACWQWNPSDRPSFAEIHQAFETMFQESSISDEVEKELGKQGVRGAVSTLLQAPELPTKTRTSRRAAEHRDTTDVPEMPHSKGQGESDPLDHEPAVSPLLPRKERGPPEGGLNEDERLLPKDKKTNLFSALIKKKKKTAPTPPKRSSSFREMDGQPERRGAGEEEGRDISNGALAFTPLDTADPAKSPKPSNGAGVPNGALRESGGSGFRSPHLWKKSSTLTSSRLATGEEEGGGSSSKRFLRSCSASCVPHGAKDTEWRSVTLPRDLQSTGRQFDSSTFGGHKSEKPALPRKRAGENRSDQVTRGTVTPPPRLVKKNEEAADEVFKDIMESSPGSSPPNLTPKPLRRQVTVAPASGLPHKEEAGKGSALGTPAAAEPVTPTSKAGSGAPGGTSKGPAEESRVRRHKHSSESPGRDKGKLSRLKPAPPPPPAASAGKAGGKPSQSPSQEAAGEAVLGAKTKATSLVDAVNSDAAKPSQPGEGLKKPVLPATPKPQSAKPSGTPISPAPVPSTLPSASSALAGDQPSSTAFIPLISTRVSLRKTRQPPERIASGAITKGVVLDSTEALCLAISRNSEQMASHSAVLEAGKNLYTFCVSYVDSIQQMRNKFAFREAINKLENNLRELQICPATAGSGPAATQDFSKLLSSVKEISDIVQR
Chain of AKT-PKAc complex (P31750 whole entry, one chain of several): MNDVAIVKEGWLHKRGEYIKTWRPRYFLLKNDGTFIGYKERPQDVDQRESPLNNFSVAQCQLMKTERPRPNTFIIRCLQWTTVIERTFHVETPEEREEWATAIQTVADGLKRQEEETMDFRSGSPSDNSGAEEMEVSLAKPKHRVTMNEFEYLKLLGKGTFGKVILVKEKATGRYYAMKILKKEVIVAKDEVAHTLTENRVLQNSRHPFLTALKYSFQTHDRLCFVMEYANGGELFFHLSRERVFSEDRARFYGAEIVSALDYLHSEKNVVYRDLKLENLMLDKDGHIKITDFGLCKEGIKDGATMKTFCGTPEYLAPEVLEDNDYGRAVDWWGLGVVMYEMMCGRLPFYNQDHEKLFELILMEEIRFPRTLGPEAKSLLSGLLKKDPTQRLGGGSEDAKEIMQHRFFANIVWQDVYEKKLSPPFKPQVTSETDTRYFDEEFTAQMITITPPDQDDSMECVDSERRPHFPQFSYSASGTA

## AKRVKGRTWTLCGTPEY [ZaTa]
[1]
  inhibition of p70S6K: 64%
[2]
  phosphorylation level of AKT substrates in N2a cells: concomitant decrease
[3]
  amount of PKAc in physical contact with AKT, in vivo: dramatically reduced

## labeled ZaTa: ZaTa peptide labeled with a red fluorescent dye at its N-terminus ({red fluorescent dye}-AKRVKGRTWTLCGTPEY; reading uncertain)
[4]
  inhibition of Abl in cells: did not cause inhibition
